Data reported in patent US5488049A, “Method of treating learning and memory disorders using benzothiadiazide derivatives as nootropic agents” (FIDIA - Georgetown Institute for the Neuro-Sciences, priority 1993, dated 1996).
“Also recorded” adds a separate entry of the source.

Experiments:
GABAA receptors = assay: Preliminary electrophysiological and biochemical radiolabeled binding studies on GABAA receptors
Pacata monkeys = assay: Preliminary experiments in Pacata monkeys: working memory; assay type: in vivo
Excerpt: The present IDRAcompounds are useful for enhancing both short-term memory, long-term memory, and cognitive performance in man. […]. As a result, the compounds of the present invention are useful as therapeutic agents in memory impairment, e.g., due to toxicant exposure, brain injury, epilepsy, mental retardation in children and senile dementia, including Alzheimer's disease.

Gross animal behavior = conditions: at effective doses
rats [1] = assay: Water maze: drug action on alprazolam-disrupted learning behavior in rats; assay type: in vivo, rat
Protocol: Rats (male 250 g b.w.) were trained two days, once a day, in maze A (See insert A). […] Rats were exposed to a new maze configuration (Maze B) in 4 successive trials 15, 30, 45, and 60 min after the i.p. injections.
The water maze apparatus was adapted from Kant et al., (16), and consists of three concentric squares placed inside a 5 ft plastic pool (FIG. 6). The walls of the maze are 50 cm in height and are constructed from black opaque plastic to allow for tracking of the animal with an overhead camera. The alleys between the walls are 16 cm wide. In the center of each wall there is a removable doorway. The opening of doorways allows for the construction of mazes with an increasing number of potential error possibilities. (See diagram for Maze A and Maze B, FIG. 6). The maze is located in a room 10'×15' at constant temperature (18° C.) adjacent to the vivarium. The room is illuminated with overhead lights which also serve as spatial cues. Additional spatial cues are provided by the position of the investigator and a number of small white x's placed within specific locations upon the walls of the maze. The maze is filled with water (18°)C. to a depth of 25 cm.
Seven days prior to drug studies, rats were tested in Maze A (forced maze) on two consecutive days. Pretesting with the "forced" maze enabled the assessment of the animals' general motor, sensory and motivational abilities, and facilitated the exclusion of those animals unable to meet pretesting criteria. Performance was assessed by determining either swim time, errors committed, or path length measured with a computerized recording device. Errors are defined as whole body entry into alleys not leading directly to the exit platform (i.e., shaded portions in FIG. 6). Rats were excluded from the study if their swim path length and/or number of errors were two standard deviations above the mean […] of the entire group. During the first two trials, the rats were placed into the center of the maze and given a maximum of 180 secs to find the "exit platform" located at the "finish" (FIG. 6). The time required, the number of errors, and the path length were recorded for each trial. […] Rats meeting the criteria were randomly divided into groups. On the day of the experiment, a single trial was run (Maze A) in order to establish a baseline of performance. Following drug administration, the rats were again tested once on Maze A to establish a baseline of post-treatment performance. Following an additional interatrial interval of 30 min., the rats were tested on Maze B.
In these experiments, rats were trained in Maze B 15, 30, 45 and 60 min. after drug injection.

rats [2] = assay: as above; assay type: in vivo, rat; conditions: oral 5 mg/kg
[3] = Entry into the brain (inferred from in vivo activity); conditions: inferred ("presumably") from in vivo activity or lack of it
[4] = tested on: kainate-activated current; assay: Selectivity: ionic current elicited by 20 μM kainate; assay type: cell-based, rat
Protocol: (§1) Young rats (12-16 days old) were decapitated and the brains quickly removed and placed in ice-cold Ringer solution. Thin slices of hippocampus (250 μm) were then cut with a vibratome slicer (Lancer, St. Louis, Mo.) and kept in Ringer solution at 37° C. until use. The experiments were carried out at room temperature with the slice totally submerged in a 1 ml volume recording chamber and under continuous perfusion with Ringer solution at a rate of 6 ml/min using an upright Hoffman modulation contrast microscope (Carl Zeiss, Germany) equipped with a 40×water immersion objective.
(§2) Media and drug application. The external Ringer solution contained (in mM): NaCl 120; KCl 3.1; CaCl2 2; MgCl2 1; KH2 PO4 1; NaHCO3 26; glucose 2.7; and it was continuously bubbled with 95% O2 and 5% CO2. Patch pipettes were filled with a solution containing (in mM): K-gluconate 140; MgCl2 1; ATP.Mg 2; EGTA 0.5; HEPES-KOH 10, pH 7.2. All the drugs under investigation were applied through the recording chamber perfusion system via parallel inputs having a common entry into the chamber. Agonist application was attained using two different systems that allowed a slow or a rapid solution change. Slow solution changes were used during recordings in whole-cell configuration and were obtained by exchanging the solution of the recording chamber within a few seconds. Fast solution changes were obtained with the use of the Y-shaped tubing method that allows complete exchange of solution in less than 10 ms, and is described in detail by Murase et al. (1989).
(§3) Ionic currents in whole-cell configuration and outside-out excised membrane patches were monitored using the patch clamp technique (15).

AMPA receptor = assay: Fast application with double barrel pipette: AMPA receptor desensitization in outside-out patches from CAl hippocampal pyramidal neurons; assay type: cell-based, rat; conditions: comparison compound, lower dose than IDRA 21, concentration not given
Protocol: as §1, §2
Briefly, a polyethylene tubing (1 mm i.d.) is bent in a U-shaped, and another fine polyethylene tubing (50 μi.d.) and 10 mm length) is inserted into a small hole in the U-tubing making the tip of the Y-tubing. Solutions are fed to the Y-tubing by gravity, and negative pressure facilitates exchange of the solution. The tip of the Y-tubing is positioned 100 μm from the cell investigated, and upon opening and closing of a valve that controls the negative pressure, it was possible to respectively change rapidly and apply a number of different test solutions. This method was used to apply agonists to excised outside-out membrane patches. More rapid drug applications were used to apply agonists to excised outside-out membrane patches, and were obtained through a double-barrelled pipette positioned close to the recording pipette containing the membrane patch. […] The agonist was applied for a period of 150 ms and the time necessary for a complete exchange of the solution was less than 1 ms as measured at the opening of a patch pipette containing different dilutions of the drugs under study. […]
Ionic currents in whole-cell configuration and outside-out excised membrane patches were monitored using the patch clamp technique (15). […]

[5] = tested on: EPSCs elicited in CAl pyramidal neurons; assay: Excitatory postsynaptic currents (EPSCs) in CAl pyramidal neurons in hippocampal slices on stimulation of Schaffer collateral afferents; assay type: cell-based, rat; conditions: in vitro; compared with (+) IDRA 21
Protocol: as §1, §3
Traces were filtered at 3 KHz (-3 dB, 8-pole, lowpass Bessel filter, Frequency Devices), and stored in an LSI 11/73 computer (INDEC System, Sunnyvale, Calif.) after digitization (10 KHz) with a Data Translation analog to digital converter. Decay time constants of EPSC and glutamate-activated currents were determined from exponential fitting with the 11/73 system by using an entirely automated least-squares procedures (see Vicini and Schuetze, 1985, for further details). This method uses a Simplex algorithm (Caceci and Cacheris, 1984) to fit the data to either a single or double exponential equation of the form I(t)=If exp(-t/tauf)+Is exp(-t/taus), where If and Is are the amplitudes of the sIPSC fast and slow components, and tauf and taus are their respective decay time constants. Peak amplitudes were measured at the absolute maximum of the currents, taking into account the noise of the baseline and noise around the peak. Rise times were measured as the time elapsed from 20 to 80% of the peak amplitude of the response.
The action of nootropic drugs on the excitatory postsynaptic currents (EPSCs) elicited in CAl pyramidal neurons in hippocampal slices was investigated by stimulation of the Schaffer collateral afferents.

| SMILES | direct action on GABAA receptors (GABAA receptors) | working memory enhancement (Pacata monkeys) | effect on gross animal behavior (exploratory behavior, stereotypy, ataxia, posture) (Gross animal behavior) | disruptive action of alprazolam (rats [1]; discussion statement) | dose dependence of learning and memory enhancing effect (rats [1]; rat, in vivo) | duration of learning and memory enhancing effect (rats [1]; rat, in vivo) | biological activity of enantiomers (summary) (rats [1]; summary statement) | potency vs racemate in preventing alprazolam-induced amnesia (rats [2]) | prevention of alprazolam-induced amnesia (enantiomers) (rats [2]) | brain uptake [3] | effect on kainate-activated current ([4]; 40 μM compound, 20 μM kainate) | effect on kainate responses at doses that decreased AMPA desensitization ([4]; all doses that decrease/inhibit AMPA desensitization) | antagonism of alprazolam amnesic effect (rats [1]; doses equimolar to IDRA 21 / (+) IDRA 21) | removal of glutamate-induced desensitization (AMPA receptor) | efficacy in increasing excitatory synaptic strength in CAl pyramidal neurons [5] |
| --- | --- | --- | --- | --- | --- | --- | --- | --- | --- | --- | --- | --- | --- | --- | --- |
| CC1Nc2ccc(Cl)cc2S(=O)(=O)N1 (single isomer, unassigned; (+)) [(+) IDRA 21] | fails to act directly on GABAA receptors | very potent in enhancing working memory | no changes in exploratory behavior, stereotypy, ataxia, posture, etc. | antagonizes the disruptive action of alprazolam | dose-dependent | > 1 h | biologically active | significantly more potent than (±) IDRA; also recorded: more potent that (±) IDRA 21 | active in preventing alprazolam-induced amnesia in rats | taken up by the brain in a sufficient quantity to produce learning and memory enhancing effects |  |  |  |  |  |
| NS(=O)(=O)c1cc2c(cc1Cl)NC(C1CC3C=CC1C3)NS2(=O)=O (stereo not shown) [cyclothiazide, reference compound] |  |  |  |  |  |  |  |  |  | fail to enter the brain | increased the current | potently potentiated kainate responses | unable to antagonize alprazolam-induced impairment of learning behavior | completely removed the desensitization induced by glutamate | at least as efficacious as (+) IDRA 21 |
